Assay results as given in US8772500B2, “TRPV3 modulators” (AbbVie Inc., priority 2011, dated 2014).

Assays:
[1] = In vitro human microsomal stability assay; type: in vitro ADME; conditions: for HUMAN MICROSOMAL STABILITY (% REMAINING AFTER 30 MINUTES): 0.5 h, 0.5 μM, pH 7.4
Outline: (§1)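 Incubations ran at 37 °C in NADPH-supplemented rat (Sprague-Dawley) or human hepatic microsomes.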

[2] = In vitro rat microsomal stability assay; type: in vitro ADME, rat (Sprague-Dawley); conditions: for RAT MICROSOMAL STABILITY (% REMAINING AFTER 30 MINUTES): Sprague-Dawley, 0.5 h, 0.5 μM, pH 7.4
Outline: as §1

[3] = test system: CD1 mice; assay: In vivo chronic constriction injury (CCI) model of neuropathic pain, mechanical allodynia (von Frey); conditions: 100 mg/kg oral dose, 1 hour after dosing, average of eight mice; vehicle 0%, control 100%
Procedure: Test compounds were evaluated for analgesic effect in an in vivo chronic constriction injury (CCI) model of neuropathic pain. CD1 mice (Charles River) were used for these studies. Prior to testing (2-4 weeks) animals underwent a surgical procedure consisting of approximately 3 loose ligatures around the sciatic nerve. Following sterilization procedures, under isofluorane anesthetic, a 1.5 cm incision was made dorsal to the pelvis. The biceps femoris and gluteous superficialis (right side) were separated and the sciatic nerve exposed, isolated, and 2-4 loose ligatures (5-0 chromic gut) with less than 1 mm spacing were placed around it. Following hemostasis, the wound was sutured (layer of muscle closed with 5-0 nylon suture, and the wound closed with surgical staples) and coated with iodine. The mice were allowed to recover on a warming plate and were returned to their home cages (soft bedding) when able to walk on their own.
Two to four weeks after the surgery, test compound was administered orally (PO) in these mice, and mechanical allodynia was evaluated 1 hour after oral dosing where the threshold to response was assessed using calibrated von Frey monofilaments. The von Frey monofilaments were applied to the hind paw at increasing forces until the animal responded by lifting its paw. […]
Each test compound was evaluated in eight different mice. […]

[4] = molecular target: T1, human TRPV3 (Homo sapiens, UniProt Q8NET8); assay: In vitro antagonism of recombinant human TRPV3 activation (FLIPR Tetra calcium assay, 2-APB as agonist); type: cell-based; conditions: HEK293 cells stably expressing human TRPV3; 2-APB 80 μM; range class; read-out: IC50 (reported range)
T1 construct: expressed in transfected cells
T1 sequence (Q8NET8 1-790): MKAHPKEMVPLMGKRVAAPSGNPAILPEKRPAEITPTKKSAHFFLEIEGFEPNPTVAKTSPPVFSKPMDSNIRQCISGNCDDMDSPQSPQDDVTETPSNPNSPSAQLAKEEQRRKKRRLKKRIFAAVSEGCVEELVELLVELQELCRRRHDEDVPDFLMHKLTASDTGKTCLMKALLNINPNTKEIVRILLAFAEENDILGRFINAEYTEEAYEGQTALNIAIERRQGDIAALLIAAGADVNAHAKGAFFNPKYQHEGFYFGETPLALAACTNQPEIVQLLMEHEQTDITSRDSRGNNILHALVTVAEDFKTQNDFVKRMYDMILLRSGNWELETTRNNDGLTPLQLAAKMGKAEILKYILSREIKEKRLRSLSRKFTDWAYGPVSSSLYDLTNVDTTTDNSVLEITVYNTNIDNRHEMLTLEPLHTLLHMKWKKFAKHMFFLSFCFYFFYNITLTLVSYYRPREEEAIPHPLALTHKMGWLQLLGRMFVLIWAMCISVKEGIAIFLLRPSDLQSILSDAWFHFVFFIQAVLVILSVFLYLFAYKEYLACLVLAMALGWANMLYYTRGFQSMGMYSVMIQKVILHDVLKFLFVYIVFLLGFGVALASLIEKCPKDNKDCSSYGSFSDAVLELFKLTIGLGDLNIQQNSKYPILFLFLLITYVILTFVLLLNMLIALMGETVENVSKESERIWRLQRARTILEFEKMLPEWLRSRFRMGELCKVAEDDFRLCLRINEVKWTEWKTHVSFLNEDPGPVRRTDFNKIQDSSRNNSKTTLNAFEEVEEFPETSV
Outline: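 Readout is FLIPR fluorescence, max minus min as percent of uninhibited 2-APB response, giving IC50 (usually mean of ≥2 runs). Stable human TRPV3 HEK293 cells, Calcium-4 dye-loaded, got test compound then, three minutes later, 80 μM 2-APB (EC80); run length 10 min.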

[5] = 0.5 μM substrate, 0.25 mg/mL microsomal protein, pH 7.4, 37° C., NADPH, 30 minutes

| Compound | HUMAN […] (% REMAINING AFTER 30 MINUTES) [1, 5] | RAT […] (% REMAINING AFTER 30 MINUTES) [2, 5] | % EFFECT [3] | IC50 [4] | HUMAN MICROSOMAL STABILITY (% REMAINING AFTER 30 MINUTES) [1] | RAT MICROSOMAL STABILITY (% REMAINING AFTER 30 MINUTES) [2] |
| --- | --- | --- | --- | --- | --- | --- |
| C[C@]1(O)C[C@](c2cc(C(F)(F)F)ccn2)([C@H](O)c2ccccn2)C1 (relative stereo) [Example 285, cis-3-[(S)-hydroxy(pyridin-2-yl)methyl]-1-methyl-3-[4-(trifluoromethyl)-pyridin-2-yl]cyclobutanol] | 83% | 69% | 59% |  |  |  |
| Cc1ccc(CC2(C(O)c3ccccn3)CCC2)cc1 (stereo not drawn) [Example 52, [1-(4-methylbenzyl)cyclobutyl](pyridin-2-yl)methanol] |  |  |  | 1100 to 5000 nM | 1.7% | 0.05% |
| N[C@H]1CCC[C@@H]1[C@H](O)C1(c2ccc(Cl)cc2)CCC1 [Example 225, (S)-[(1S,2S)-2-aminocyclopentyl][1-(4-chlorophenyl)cyclobutyl]methanol] |  |  |  | 1100 to 5000 nM | >85% | 34% |
| OC(c1ccccn1)C1(c2cccc(Oc3ccccc3)c2)CCC1 (stereo not drawn) [Example 23, [1-(3-phenoxyphenyl)cyclobutyl](pyridin-2-yl)methanol] |  |  |  | 501 to 1000 nM | 0.12% | 0.69% |
| O[C@H](c1ccccn1)C1(c2cc(C(F)(F)F)ccn2)CC(F)(F)C1 [Example 126, (S)-{3,3-difluoro-1-[4-(trifluoromethyl)pyridin-2-yl]cyclobutyl}(pyridin-2-yl)methanol] |  |  |  | 501 to 1000 nM | 21% | 7.7% |
| Cc1ccccc1C1(C(O)c2ccccn2)CCC1 (stereo not drawn) [Example 7, [1-(2-methylphenyl)cyclobutyl](pyridin-2-yl)methanol] |  |  |  | 5100 to 20000 nM | 0.15% | 0.32% |
| O[C@H](c1ccccn1)C1(c2ccc(C(F)(F)F)cc2)CC(F)(F)C1 [Example 154, (S)-{3,3-difluoro-1-[4-(trifluoromethyl)phenyl]cyclobutyl}(pyridin-2-yl)-methanol] |  |  |  | 50 to 500 nM | 56% | 78% |
